The values below are quoted from earlier work in patent US9579288B2, “Tesofensine and beta blocker combination formulations” (Saniona A/S, priority 2015, dated 2017).

The structures appear in SMILES notation.

The conditions of data set [1]: obese patients, long-term treatment, corrected for placebo and diet effects.
Data set [2] has as its system DIO rats. Particulars: rat model of diet-induced obesity (DIO).

For `CCOC[C@@H]1[C@@H](c2ccc(Cl)c(Cl)c2)C[C@@H]2CC[C@H]1N2C` [Tesofensine, (1R,2R,3S,5S)-3-(3,4-dichlorophenyl)-2-(ethoxymethyl)-8-methyl-8-azabicyclo[3.2.1]octane], the weight loss result in data set [1] was “about 10%”. For the same compound, the body weight result in data set [2] is “robust and sustained weight loss”.
